This is an account of results in patent US7541352B2, “Compounds for the treatment of hepatitis C” (Bristol-Myers Squibb Company, priority 2007, dated 2009).

For orientation: EC50 means the concentration at which the effect is half-maximal. The term IC50 denotes the concentration needed to halve the response being measured.

The test system of one test is HCV replicon cells. In words: HCV replicon FRET assay. It counts as cell-based. As to conditions: Hepatitis C virus. The protocol:
FRET Assay Preparation. The HCV FRET screening assay was performed in 96-well cell culture plates. The FRET peptide (Anaspec, Inc.) (Taliani et al., Anal. Biochem. 1996, 240, 60-67) contains a fluorescence donor, EDANS, near one end of the peptide and an acceptor, DABCYL, near the other end. The fluorescence of the peptide is quenched by […] resonance energy transfer (RET) between the donor and the acceptor, but as the NS3 protease cleaves the peptide the products are released from RET quenching and the fluorescence of the donor becomes apparent. The assay reagent was made as follows: 5× cell Luciferase cell culture lysis reagent from Promega (#E153A) diluted to 1× with dH2O, NaCl added to 150 mM final, the FRET peptide diluted to 20 μM final from a 2 mM stock.
To prepare plates, HCV replicon cells, with or without a Renilla luciferase reporter gene, were trypsinized and plated in a 96-well plate with titrated test compounds added in columns 3 through 12; columns 1 and 2 contained a control compound (HCV control inhibitor), and the bottom row contained cells with DMSO only. The plates were then placed in a CO2 incubator at 37° C.
Assays. Subsequent to addition of the test compounds described above (FRET Assay Preparation), at various times the plate was removed and Alamar blue solution (Trek Diagnostics, #00-100) was added to measure cellular toxicity. After reading in a Cytoflour 4000 instrument (PE Biosystems), plates were rinsed with PBS and then used for FRET assay by the addition of 30 ul of the FRET peptide assay reagent described above (FRET Assay Preparation) per well. The plate was then placed into the Cytoflour 4000 instrument which had been set to 340 excite/490 emission, automatic mode for up to 20 cycles and the plate read in a kinetic mode. Typically, the signal to noise using an endpoint analysis after the reads was at least three-fold. Alternatively, after Alamar blue reading, plates were rinsed with PBS, then used for luciferase assay using the Promega Dual-Glo Luciferase Assay System or the Promega EnduRen Live Cell Substrate assay.
Compound analysis was performed by quantification of the relative HCV replicon inhibition and the relative cytotoxicity values. To calculate cytoxicity values, the average Alamar Blue fluorescence signals from the control wells were set as 100% non-toxic. The individual signals in each of the compound test wells were then divided by the average control signal and multiplied by 100% to determine […]. To calculate the HCV replicon inhibition values, an average background value was obtained from the two wells containing the highest amount of HCV control inhibitor at the end of the assay period. These numbers were similar to those obtained from naïve Huh-7 cells. The background numbers were then subtracted from the average signal obtained from the control wells and this number was used as 100% activity. The individual signals in each of the compound test wells were then divided by the averaged control values after background subtraction and multiplied by 100% to determine percent activity. EC50 values were calculated as the concentration which caused a 50% reduction in FRET or luciferase activity. The two numbers generated for the compound plate, percent cytoxicity and percent activity, were used to determine compounds of interest for further analysis.
(A replicon is a self-replicating genome or part of one, used to study replication in cells.)

The target in test [1] is T1, HCV NS5B RdRp genotype 1b (Hepatitis C virus genotype 1b, UniProt Q9WMX2).
T1 construct: The protein was expressed with an 18 amino acid C-terminal truncation to enhance the solubility; made in house; host or cells: E. coli BL21(DE3), pET21a
T1 sequence (Q9WMX2 2420-2992): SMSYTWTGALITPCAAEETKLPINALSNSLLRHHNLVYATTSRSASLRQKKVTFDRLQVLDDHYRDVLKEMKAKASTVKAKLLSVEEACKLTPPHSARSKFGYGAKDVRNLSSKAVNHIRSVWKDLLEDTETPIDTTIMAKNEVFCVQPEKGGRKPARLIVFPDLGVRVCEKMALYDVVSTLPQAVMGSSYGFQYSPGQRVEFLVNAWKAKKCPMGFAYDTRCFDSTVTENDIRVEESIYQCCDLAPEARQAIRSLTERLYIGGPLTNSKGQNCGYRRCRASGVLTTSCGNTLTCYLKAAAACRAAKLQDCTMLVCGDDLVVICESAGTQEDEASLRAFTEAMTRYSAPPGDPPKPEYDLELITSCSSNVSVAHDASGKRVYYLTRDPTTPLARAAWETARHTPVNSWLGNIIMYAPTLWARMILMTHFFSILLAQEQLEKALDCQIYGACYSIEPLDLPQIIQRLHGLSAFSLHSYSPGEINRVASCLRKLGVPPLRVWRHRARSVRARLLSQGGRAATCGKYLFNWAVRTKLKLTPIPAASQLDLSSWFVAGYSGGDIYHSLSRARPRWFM
In words: Modified HCV NS5B RdRp enzyme assay (preincubation protocol). In kind it is biochemical. The procedure:
HCV NS5B RdRp cloning, expression, and purification. The cDNA encoding the NS5B protein of HCV, genotype 1b, was cloned into the pET21a expression vector. The protein was expressed with an 18 amino acid C-terminal truncation to enhance the solubility. The E. coli competent cell line BL21(DE3) was used for expression of the protein. Cultures were grown at 37° C. for ˜4 hours until the cultures reached an optical density of 2.0 at 600 nm. The cultures were cooled to 20° C. and induced with 1 mM IPTG. Fresh ampicillin was added to a final concentration of 50 μg/ml and the cells were grown overnight at 20° C.
Cell pellets (3 L) were lysed for purification to yield 15-24 mgs of purified NS5B. The lysis buffer consisted of 20 mM Tris-HCl, pH 7.4, 500 mM NaCl, 0.5% triton X-100, 1 mM DTT, 1 mM EDTA, 20% glycerol, 0.5 mg/ml lysozyme, 10 mM MgCl2, 15 ug/ml deoxyribonuclease I, and Complete TM protease inhibitor tablets (Roche). After addition of the lysis buffer, frozen cell pellets were resuspended using a tissue homogenizer. To reduce the viscosity of the sample, aliquots of the lysate were sonicated on ice using a microtip attached to a Branson sonicator. The sonicated lysate was centrifuged at 100,000×g for 1 hr at 4° C. and filtered through a 0.2 μm filter unit (Corning).
The protein was purified using two sequential chromatography steps: Heparin sepharose CL-6B and polyu sepharose 4B (Pharmacia). The chromatography buffers were identical to the lysis buffer but contained no lysozyme, deoxyribonuclease I, MgCl2 or protease inhibitor and the NaCl concentration of the buffer was adjusted according to the requirements for charging the protein onto the column. Each column was eluted with a NaCl gradient which varied in length from 5-50 column volumes depending on the column type. After the final chromatography step, the resulting purity of the enzyme is >90% based on SDS-PAGE analysis. The enzyme was aliquoted and stored at −80° C.
Standard HCV NS5B RdRp enzyme assay. HCV RdRp genotype 1b assays were run in a final volume of 60 μl in 96 well plates (Corning 3600). The assay buffer is composed of 20 mM Hepes, pH 7.5, 2.5 mM KCl, 2.5 mM MgCl2, 1 mM DTT, 1.6 U RNAse inhibitor (Promega N2515), 0.01 mg/ml BSA (Sigma B6917), and 2% glycerol. All compounds were serially diluted (3-fold) in DMSO and diluted further in water such that the final concentration of DMSO in the assay was 2%. HCV RdRp genotype 1b enzyme was used at a final concentration of 28 nM. A polyA template was used at 6 nM, and a biotinylated oligo-dT 12 primer was used at 180 nM final concentration. Template was obtained commercially (Amersham 27-4110). Biotinylated primer was prepared by Sigma Genosys. 3H-UTP was used at 0.6 μCi (0.29 μM total UTP). Reactions were initiated by the addition of enzyme, incubated at 30° C. for 60 min, and stopped by adding 25 μl of 50 mM EDTA containing SPA beads (4 μg/μl, Amersham RPNQ 0007). Plates were read on a Packard Top Count NXT after >1 hr incubation at room temperature.
Modified HCV NS5B RdRp enzyme assay. A modified enzyme assay was performed essentially as described for the standard enzyme assay except for the following: The biotinylated oligo dT12 primer was precaptured on streptavidin-coated SPA beads by mixing primer and beads in assay buffer and incubating at room temperature for one hour. Unbound primer was removed after centrifugation. The primer-bound beads were resuspended in 20 mM Hepes buffer, pH 7.5 and used in the assay at final concentrations of 20 nM primer and 0.67 μg/μl beads. Order of addition in the assay: enzyme (1.75 nM) was added to diluted compound followed by the addition of a mixture of template (0.36 nM), 3H-UTP (0.6 μCi, 0.29 μM), and primer-bound beads, to initiate the reaction; concentrations given are final. Reactions were allowed to proceed for 4 hours at 30° C.
IC50 values for compounds were determined using seven different [I]. […]

[2] abbreviates: HCV replicon cells, determined using the FRET assay, read-out: EC50.
Where [3] appears, read: HCV NS5B RdRp, determined using the preincubation protocol, read-out: IC50.

Read-outs that look alike come from different tables or passages of the source.

`COc1ccc2c(c1)C1CC1(NC(=O)C(=O)N1C3CCC1CN(C)C3)Cn1c-2c(C2CCCCC2)c2ccc(C(=O)NS(=O)(=O)N(C)C)cc21` (stereo not shown) registered an EC50 in the test on HCV replicon cells of 0.001 to 0.5 µM. In addition, the IC50 in test [1] was 0.001 to 0.5 µM.

Take `COc1ccc2c(c1)[C@@H]1C[C@]1(NC(=O)N1C3CCC1CN(C)C3)Cn1c-2c(C2CCCCC2)c2ccc(C(=O)NS(=O)(=O)N(C)C)cc21`: the EC50 in the test with HCV replicon cells fell in the range of 0.001 to 0.5 µM. For the same molecule, the IC50 in test [1] was 0.001 to 0.5 µM.

In the case of `COc1ccc2c(c1)[C@@H]1C[C@]1(NC(=O)C(=O)N(C)C)Cn1c-2c(C2CCCCC2)c2ccc(C(=O)NS(=O)(=O)N(C)C)cc21` [drawing 35], the EC50 with HCV replicon cells (setting [2]) was in the range of 0.001 to 0.5 µM. The IC50 in test [1] (setting [3]) fell in the range of 0.001 to 0.5 µM.

With `COc1ccc2c(c1)C1CC1(NC(=O)C(=O)N1CCCN(C)CC1)Cn1c-2c(C2CCCCC2)c2ccc(C(=O)NS(=O)(=O)N(C)C)cc21` (stereo not shown), in the test on HCV replicon cells (setting [2]), the EC50 was 0.001 to 0.5 µM. The IC50 in test [1] (setting [3]) was in the range of 0.001 to 0.5 µM.

In the case of `COc1ccc2c(c1)CC(NC(=O)C(=O)N(C)C)Cn1c-2c(C2CCCCC2)c2ccc(C(=O)NS(=O)(=O)N(C)C)cc21` (stereo not shown), the EC50 with HCV replicon cells (setting [2]) was in the range of 0.001 to 0.5 µM. Besides, the IC50 in test [1] (setting [3]) is 0.001 to 0.5 µM.

Regarding `COc1ccc2c(c1)[C@@H]1C[C@]1(NC(=O)C(=O)N1C[C@@H](C)O[C@@H](C)C1)Cn1c-2c(C2CCCCC2)c2ccc(C(=O)NS(=O)(=O)N(C)C)cc21` [drawing 34], the EC50 with HCV replicon cells (setting [2]) was 0.001 to 0.5 µM. Further, the IC50 in test [1] (setting [3]) lay within 0.001 to 0.5 µM.

Consider `COc1ccc2c(c1)C1CC1(NC(=O)C(=O)N1CC(C)N(C)C(C)C1)Cn1c-2c(C2CCCCC2)c2ccc(C(=O)NS(=O)(=O)N(C)C)cc21` (stereo not shown), for which the EC50 in the test with HCV replicon cells (setting [2]) lay in the range of 0.001 to 0.5 µM. In test [1] (setting [3]), the IC50 lay within 0.001 to 0.5 µM.

Take `COc1ccc2c(c1)C1CC1(NC(=O)C(=O)N(C)C)Cn1c-2c(C2CCCCC2)c2ccc(C(=O)NS(=O)(=O)N(C)C)cc21` (stereo not shown): the EC50 in the test on HCV replicon cells (setting [2]) fell in the range of 0.001 to 0.5 µM. For the same molecule, the IC50 in test [1] (setting [3]) fell in the range of 0.001 to 0.5 µM.

In turn, `COc1ccc2c(c1)CC(NC(=O)C(=O)N1C3CCC1CN(C)C3)Cn1c-2c(C2CCCCC2)c2ccc(C(=O)NS(=O)(=O)N(C)C)cc21` (stereo not shown) returned an EC50 in the test on HCV replicon cells of 0.001 to 0.5 µM. In test [1], this molecule gave an IC50 of 0.001 to 0.5 µM.

Consider `COc1ccc2c(c1)[C@@H]1C[C@]1(NC(=O)C(=O)N1CCOCC1c1ccccc1)Cn1c-2c(C2CCCCC2)c2ccc(C(=O)NS(=O)(=O)N(C)C)cc21` (stereo partly shown), for which the EC50 with HCV replicon cells (setting [2]) was in the range of 0.001 to 0.5 µM. Moreover, in test [1] (setting [3]), the IC50 lay within 0.001 to 0.5 µM.

`COc1ccc2c(c1)[C@@H]1C[C@]1(NC(=O)C(=O)N(C)C)Cn1c-2c(C2CCCCC2)c2ccc(C(=O)NS(=O)(=O)N(C)C)cc21` [drawing 40]: in the test with HCV replicon cells (setting [2]), the EC50 was in the range of 0.001 to 0.5 µM. Besides, the IC50 in test [1] (setting [3]) was 0.001 to 0.5 µM.
